Assay [1] concerns the target human glucagon receptor (hGCGR) (Homo sapiens, UniProt P47871). Put plainly: cAMP production (HTRF) in CHO cells expressing hGCGR. Type of assay: cell-based. Set-up: expressed in transfected cells. To be noted: Table 7, peptides modified at position 20; cAMP in CHO hGCGR cells; geometric mean; read-out: hGluc-R EC50. Summed up:
(§1)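 Cells were resuspended in assay buffer at batch-optimized density, typically 1×10^5 cells/mL for hGLP-1R and 2×10^5 cells/mL for hGCGR. After 30 min incubation at room temperature with compound, cAMP was measured by two-step HTRF. EC50 values came from 4-parameter logistic fits of % Delta F.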

Assay [2] has as its target human GLP-1 receptor (hGLP-1R) (Homo sapiens, UniProt P43220). Put plainly: cAMP production (HTRF) in CHO cells expressing hGLP-1R. Type of assay: cell-based. The arrangement: expressed in transfected cells. The note with it: for EC50: Table 7, peptides modified at position 20, cAMP in CHO hGLP-1R cells, geometric mean, read-out: hGLP-1R EC50; for % Relative Potency Ratio: Table 7, % GLP-1R activity relative to GLP-1 / % GlucR activity relative to glucagon. A digest of the protocol: as §1
On the technique in general: cAMP levels reflect the balance of adenylyl cyclase and phosphodiesterase activity.

Usually EC50 stands for the concentration that produces a half-maximal response.

Each structure is given as a SMILES string. Starred links: 1 amine or outer side, 2 acyl side, 3 side chain; linkers in the order of their positions; H or OH if unused. Non-standard residues stand in square brackets, D forms with d. Residues, ends and D or L forms follow the SMILES beside them. Groups on a side chain read outwards from the residue. *: point of attachment. C20 diacid = O=C(O)CCCCCCCCCCCCCCCCCCC(=O)*; γGlu = O=C(O)[C@H](CCC(=O)[*:2])N[*:1]; αMeF = C[C@](N)(Cc1ccccc1)C(=O)O; AEEA = NCCOCCOCC(=O)O; Aib = CC(C)(N)C(=O)O

Chain of human GLP-1 receptor (hGLP-1R) (P43220 24-463): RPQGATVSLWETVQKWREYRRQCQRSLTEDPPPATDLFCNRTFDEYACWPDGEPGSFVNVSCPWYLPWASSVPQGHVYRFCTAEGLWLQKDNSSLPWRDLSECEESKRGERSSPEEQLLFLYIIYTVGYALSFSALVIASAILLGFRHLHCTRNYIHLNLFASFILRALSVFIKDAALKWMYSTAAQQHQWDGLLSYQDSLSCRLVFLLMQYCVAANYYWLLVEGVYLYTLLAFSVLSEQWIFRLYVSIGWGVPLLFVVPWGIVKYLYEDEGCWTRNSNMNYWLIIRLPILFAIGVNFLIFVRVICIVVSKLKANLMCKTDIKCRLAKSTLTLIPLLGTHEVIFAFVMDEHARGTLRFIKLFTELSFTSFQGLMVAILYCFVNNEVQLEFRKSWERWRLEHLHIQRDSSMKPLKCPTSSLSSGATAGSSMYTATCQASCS
Chain of human glucagon receptor (hGCGR) (P47871 26-477): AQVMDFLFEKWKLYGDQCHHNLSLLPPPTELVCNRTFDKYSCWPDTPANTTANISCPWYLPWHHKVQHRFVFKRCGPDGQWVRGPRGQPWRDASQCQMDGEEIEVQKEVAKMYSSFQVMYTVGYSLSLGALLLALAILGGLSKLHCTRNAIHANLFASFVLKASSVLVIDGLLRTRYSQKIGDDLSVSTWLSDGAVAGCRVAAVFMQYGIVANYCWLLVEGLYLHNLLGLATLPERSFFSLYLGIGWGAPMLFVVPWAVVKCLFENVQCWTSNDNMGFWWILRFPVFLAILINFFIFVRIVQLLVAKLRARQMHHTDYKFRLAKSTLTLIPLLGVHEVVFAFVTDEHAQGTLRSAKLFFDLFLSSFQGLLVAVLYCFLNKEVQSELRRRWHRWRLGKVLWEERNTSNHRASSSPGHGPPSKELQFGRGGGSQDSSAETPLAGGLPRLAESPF

As for `CC[C@H](C)[C@H](NC(=O)[C@H](Cc1c[nH]c2ccccc12)NC(=O)[C@H](CCC(N)=O)NC(=O)[C@@H](NC(=O)[C@H](Cc1ccccc1)NC(=O)[C@H](CC(=O)O)NC(=O)[C@H](CCCCNC(=O)COCCOCCNC(=O)COCCOCCNC(=O)CC[C@H](NC(=O)CCCCCCCCCCCCCCCCCCC(=O)O)C(=O)O)NC(=O)[C@H](C)NC(=O)[C@H](C)NC(=O)[C@H](CCCNC(=N)N)NC(=O)[C@H](CO)NC(=O)[C@H](CC(=O)O)NC(=O)[C@H](CC(C)C)NC(=O)[C@](C)(Cc1ccccc1)NC(=O)[C@H](CCCCN)NC(=O)[C@H](CO)NC(=O)[C@@H](NC(=O)[C@H](CC(=O)O)NC(=O)[C@H](CO)NC(=O)[C@@H](NC(=O)[C@](C)(Cc1ccccc1)NC(=O)[C@H](CO)NC(=O)CNC(=O)[C@H](Cc1c[nH]cn1)NC(=O)C(C)(C)NC(=O)[C@@H](N)Cc1c[nH]cn1)[C@@H](C)O)C(C)C)C(C)C)C(=O)N[C@@H](C)C(=O)N[C@@H](CC(N)=O)C(=O)N[C@H](C(N)=O)[C@@H](C)O` [Peptide 214] (H-H[Aib]HGS[αMeF]TSDVSK[αMeF]LDSRAAK([AEEA-AEEA-γGlu-C20 diacid])DFVQWIANT-NH2), the figures for the EC50 in assay [1] and in assay [2] were 810 pM and 2340 pM, respectively. Further, the “% Relative Potency Ratio” value in assay [2] was 0.7.

Turning to `CC[C@H](C)[C@H](NC(=O)[C@H](Cc1c[nH]c2ccccc12)NC(=O)[C@H](CCC(N)=O)NC(=O)[C@@H](NC(=O)[C@](C)(Cc1ccccc1)NC(=O)[C@H](CC(=O)O)NC(=O)[C@H](CCCCNC(=O)COCCOCCNC(=O)COCCOCCNC(=O)CC[C@H](NC(=O)CCCCCCCCCCCCCCCCCCC(=O)O)C(=O)O)NC(=O)[C@H](C)NC(=O)[C@H](C)NC(=O)[C@H](CCCNC(=N)N)NC(=O)[C@H](CO)NC(=O)[C@H](CC(=O)O)NC(=O)[C@H](CC(C)C)NC(=O)[C@](C)(Cc1ccccc1)NC(=O)[C@H](CCCCN)NC(=O)[C@H](CO)NC(=O)[C@@H](NC(=O)[C@H](CC(=O)O)NC(=O)[C@H](CO)NC(=O)[C@@H](NC(=O)[C@](C)(Cc1ccccc1)NC(=O)[C@H](CO)NC(=O)CNC(=O)[C@H](Cc1c[nH]cn1)NC(=O)C(C)(C)NC(=O)[C@@H](N)Cc1c[nH]cn1)[C@@H](C)O)C(C)C)C(C)C)C(=O)N[C@@H](C)C(=O)N[C@@H](CC(N)=O)C(=O)N[C@H](C(N)=O)[C@@H](C)O` [Peptide 215] (H-H[Aib]HGS[αMeF]TSDVSK[αMeF]LDSRAAK([AEEA-AEEA-γGlu-C20 diacid])D[αMeF]VQWIANT-NH2; N-terminus assumed), in assay [1], the concentration for a half-maximal effect (EC50) was 2610 pM. Further, in assay [2], the half-maximal effective concentration (EC50) stood at 7620 pM and the “% Relative Potency Ratio” value worked out at 0.7.

Turning to `CC[C@H](C)[C@H](NC(=O)[C@H](Cc1c[nH]c2ccccc12)NC(=O)[C@H](CCC(=O)O)NC(=O)[C@@H](NC(=O)[C@](C)(Cc1ccccc1)NC(=O)[C@H](CC(=O)O)NC(=O)[C@H](CCCCNC(=O)COCCOCCNC(=O)COCCOCCNC(=O)CC[C@H](NC(=O)CCCCCCCCCCCCCCCCCCC(=O)O)C(=O)O)NC(=O)[C@H](C)NC(=O)[C@H](C)NC(=O)[C@H](CCCNC(=N)N)NC(=O)[C@H](CO)NC(=O)[C@H](CC(=O)O)NC(=O)[C@H](CC(C)C)NC(=O)[C@](C)(Cc1ccccc1)NC(=O)[C@H](CCCCN)NC(=O)[C@H](CO)NC(=O)[C@@H](NC(=O)[C@H](CC(=O)O)NC(=O)[C@H](CO)NC(=O)[C@@H](NC(=O)[C@](C)(Cc1ccccc1)NC(=O)[C@H](CO)NC(=O)CNC(=O)[C@H](Cc1c[nH]cn1)NC(=O)C(C)(C)NC(=O)[C@@H](N)Cc1c[nH]cn1)[C@@H](C)O)C(C)C)C(C)C)C(=O)N[C@@H](C)C(=O)N[C@@H](CC(N)=O)C(=O)N[C@H](C(N)=O)[C@@H](C)O` [Peptide 216] (H-H[Aib]HGS[αMeF]TSDVSK[αMeF]LDSRAAK([AEEA-AEEA-γGlu-C20 diacid])D[αMeF]VEWIANT-NH2), the concentration for a half-maximal effect (EC50) in assay [1] stood at 5670 pM. For the same compound, in assay [2], the concentration giving a half-maximal response (EC50) is 18100 pM and the “% Relative Potency Ratio” value came to 0.6.

As to `CC[C@H](C)[C@H](NC(=O)[C@H](Cc1c[nH]c2ccccc12)NC(=O)[C@H](CCC(N)=O)NC(=O)[C@@H](NC(=O)[C@H](Cc1ccccc1)NC(=O)[C@H](CC(=O)O)NC(=O)[C@H](CCCCNC(=O)COCCOCCNC(=O)COCCOCCNC(=O)CC[C@H](NC(=O)CC[C@H](NC(=O)CCCCCCCCCCCCCCCCCCC(=O)O)C(=O)O)C(=O)O)NC(=O)[C@H](C)NC(=O)C(C)(C)NC(=O)[C@H](CCCNC(=N)N)NC(=O)[C@H](CO)NC(=O)[C@H](CC(=O)O)NC(=O)[C@H](CC(C)C)NC(=O)[C@](C)(Cc1ccccc1)NC(=O)[C@H](CCCCN)NC(=O)[C@H](CO)NC(=O)[C@@H](NC(=O)[C@H](CC(=O)O)NC(=O)[C@H](CO)NC(=O)[C@@H](NC(=O)[C@](C)(Cc1ccccc1)NC(=O)[C@H](CO)NC(=O)CNC(=O)[C@H](Cc1c[nH]cn1)NC(=O)C(C)(C)NC(=O)[C@@H](N)Cc1c[nH]cn1)[C@@H](C)O)C(C)C)C(C)C)C(=O)N[C@@H](C)C(=O)N[C@@H](CC(N)=O)C(=O)N[C@H](C(N)=O)[C@@H](C)O` [Peptide 217] (H-H[Aib]HGS[αMeF]TSDVSK[αMeF]LDSR[Aib]AK([AEEA-AEEA-γGlu-γGlu-C20 diacid])DFVQWIANT-NH2), the EC50 in assay [1] came to 127 pM; in assay [2], 264 pM. In assay [2], the “% Relative Potency Ratio” value stood at 0.9.

Take `CC[C@H](C)[C@H](NC(=O)[C@H](Cc1c[nH]c2ccccc12)NC(=O)[C@H](CCC(N)=O)NC(=O)[C@@H](NC(=O)[C@H](Cc1ccccc1)NC(=O)[C@H](CC(=O)O)NC(=O)[C@H](CCCCNC(=O)COCCOCCNC(=O)COCCOCCNC(=O)CC[C@H](NC(=O)CC[C@H](NC(=O)CCCCCCCCCCCCCCCCCCC(=O)O)C(=O)O)C(=O)O)NC(=O)[C@H](C)NC(=O)[C@H](C)NC(=O)[C@H](CCCNC(=N)N)NC(=O)[C@H](CO)NC(=O)[C@H](CC(=O)O)NC(=O)[C@H](CC(C)C)NC(=O)[C@](C)(Cc1ccccc1)NC(=O)[C@H](CCCCN)NC(=O)[C@H](CO)NC(=O)[C@@H](NC(=O)[C@H](CC(=O)O)NC(=O)[C@H](CO)NC(=O)[C@@H](NC(=O)[C@](C)(Cc1ccccc1)NC(=O)[C@H](CO)NC(=O)CNC(=O)[C@H](Cc1c[nH]cn1)NC(=O)C(C)(C)NC(=O)[C@@H](N)Cc1c[nH]cn1)[C@@H](C)O)C(C)C)C(C)C)C(=O)N[C@@H](C)C(=O)N[C@@H](CC(N)=O)C(=O)N[C@H](C(=O)NCC(N)=O)[C@@H](C)O` [Peptide 218] (H-H[Aib]HGS[αMeF]TSDVSK[αMeF]LDSRAAK([AEEA-AEEA-γGlu-γGlu-C20 diacid])DFVQWIANTG-NH2): in assay [1], the concentration giving a half-maximal response (EC50) worked out at 423 pM. Besides, in assay [2], the half-maximal effective concentration (EC50) was 139 pM and the “% Relative Potency Ratio” value turned out to be 6.0.

Turning to `CC[C@H](C)[C@H](NC(=O)[C@H](Cc1c[nH]c2ccccc12)NC(=O)[C@H](CCC(N)=O)NC(=O)[C@@H](NC(=O)[C@H](Cc1ccccc1)NC(=O)[C@H](CC(=O)O)NC(=O)[C@H](CCCCNC(=O)COCCOCCNC(=O)COCCOCCNC(=O)CC[C@H](NC(=O)CC[C@H](NC(=O)CCCCCCCCCCCCCCCCCCC(=O)O)C(=O)O)C(=O)O)NC(=O)[C@H](C)NC(=O)[C@H](C)NC(=O)[C@H](CCCNC(=N)N)NC(=O)[C@H](CO)NC(=O)[C@H](CC(=O)O)NC(=O)[C@H](CC(C)C)NC(=O)[C@](C)(Cc1ccccc1)NC(=O)[C@H](CCCCN)NC(=O)[C@H](CO)NC(=O)[C@@H](NC(=O)[C@H](CC(=O)O)NC(=O)[C@H](CO)NC(=O)[C@@H](NC(=O)[C@](C)(Cc1ccccc1)NC(=O)[C@H](CO)NC(=O)CNC(=O)[C@H](Cc1c[nH]cn1)NC(=O)C(C)(C)NC(=O)[C@@H](N)Cc1c[nH]cn1)[C@@H](C)O)C(C)C)C(C)C)C(=O)N[C@@H](C)C(=O)N[C@@H](CC(N)=O)C(=O)N[C@H](C(=O)NCC(=O)NCC(N)=O)[C@@H](C)O` [Peptide 219] (H-H[Aib]HGS[αMeF]TSDVSK[αMeF]LDSRAAK([AEEA-AEEA-γGlu-γGlu-C20 diacid])DFVQWIANTGG-NH2; N-terminus assumed), the half-maximal effective concentration (EC50) in assay [1] stood at 298 pM. Moreover, in assay [2], the 50% effective concentration (EC50) worked out at 94.5 pM and the “% Relative Potency Ratio” value amounted to 6.2.

As to `CC[C@H](C)[C@H](NC(=O)C(C)(C)NC(=O)[C@H](CCC(N)=O)NC(=O)[C@@H](NC(=O)[C@H](Cc1ccccc1)NC(=O)[C@H](CC(=O)O)NC(=O)[C@H](CCCCNC(=O)COCCOCCNC(=O)COCCOCCNC(=O)CC[C@H](NC(=O)CC[C@H](NC(=O)CCCCCCCCCCCCCCCCCCC(=O)O)C(=O)O)C(=O)O)NC(=O)[C@H](C)NC(=O)C(C)(C)NC(=O)[C@H](CCCNC(=N)N)NC(=O)[C@H](CO)NC(=O)[C@H](CC(=O)O)NC(=O)[C@H](CC(C)C)NC(=O)[C@](C)(Cc1ccccc1)NC(=O)[C@H](CCCCN)NC(=O)[C@H](CO)NC(=O)[C@@H](NC(=O)[C@H](CC(=O)O)NC(=O)[C@H](CO)NC(=O)[C@@H](NC(=O)[C@](C)(Cc1ccccc1)NC(=O)[C@H](CO)NC(=O)CNC(=O)[C@H](Cc1c[nH]cn1)NC(=O)C(C)(C)NC(=O)[C@@H](N)Cc1c[nH]cn1)[C@@H](C)O)C(C)C)C(C)C)C(=O)N[C@@H](C)C(=O)N[C@@H](CC(N)=O)C(=O)N[C@H](C(N)=O)[C@@H](C)O` [Peptide 220] (H-H[Aib]HGS[αMeF]TSDVSK[αMeF]LDSR[Aib]AK([AEEA-AEEA-γGlu-γGlu-C20 diacid])DFVQ[Aib]IANT-NH2), the concentration for a half-maximal effect (EC50) in assay [1] came out at 405 pM. Also, in assay [2], the EC50 was 240 pM and the “% Relative Potency Ratio” value is reported as 3.3.
